From US11667621B2, “Antiestrogen compounds” (STEVENS INSTITUTE OF TECHNOLOGY, priority 2018, dated 2023)
Where a chain is given by its changes, count along the chain named.

Assays:
[1] = Cell proliferation assay (WST-1), 6-day exposure; format: cell-based; details: 144 h, read-out: Antiproliferation IC50
Protocol: Cell proliferation assay: WST-1 assay (Roche, Basel, Switzerland) was used to quantify cell viability after a 6-day exposure to compounds, as described in Gong et al. Mol. Cell. Endocrinol. 2016, 437, 190-200. Absorbance was measured at 450 nm using a VICTOR X5 PerkinElmer 2030 Multilabel Plate Reader, and cell proliferation values represent signal from compound-treated samples relative to vehicle-treated controls. All assays were performed in triplicate, and the values shown are the average SD of 2-3 independent experiments.

[2] = molecular target: T1, CRISPR KI D538G (Homo sapiens, UniProt P03372, D538G); experiment: Luciferase assay, CRISPR KI D538G clones; format: cell-based; details: for CRISPR KI (% Inhibition) D538G cl. 50: clone 50; for CRISPR KI (% Inhibition) D538G cl. 65: clone 65
T1 construct: endogenous in cells; host or cells: CRISPR knock-in clones (cl. 50, cl. 65)
T1 sequence (P03372 1-595 D538G): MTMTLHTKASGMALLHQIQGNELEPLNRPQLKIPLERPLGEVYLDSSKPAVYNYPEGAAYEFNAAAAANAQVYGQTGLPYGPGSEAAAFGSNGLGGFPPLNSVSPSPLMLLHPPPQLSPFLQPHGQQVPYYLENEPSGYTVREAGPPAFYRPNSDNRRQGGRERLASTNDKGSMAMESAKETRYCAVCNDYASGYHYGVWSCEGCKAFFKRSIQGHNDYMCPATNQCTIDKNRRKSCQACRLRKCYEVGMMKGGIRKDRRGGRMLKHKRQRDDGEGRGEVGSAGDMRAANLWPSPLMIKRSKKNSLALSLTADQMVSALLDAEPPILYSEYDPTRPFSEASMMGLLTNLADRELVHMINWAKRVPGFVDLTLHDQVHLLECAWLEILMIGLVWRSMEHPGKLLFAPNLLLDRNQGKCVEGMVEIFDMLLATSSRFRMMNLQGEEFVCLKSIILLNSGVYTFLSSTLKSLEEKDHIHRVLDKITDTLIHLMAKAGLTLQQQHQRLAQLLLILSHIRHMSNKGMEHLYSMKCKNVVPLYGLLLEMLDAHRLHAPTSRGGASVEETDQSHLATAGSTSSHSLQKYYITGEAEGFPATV
Protocol: (§1) Luciferase assays were performed to determine the efficacy of the example compounds at inhibiting ER or its mutants' ability to activate transcription of genes.
(§2) Cells were plated at a density of 0.15×10^6 per well of 24 well plates one day prior to transfection. Cells were transfected with 125 ng (per well) of HA-ERα wild type or mutants, 315 ng (per well) of 3×-ERE-TATA-Luciferase reporter and 50 ng (per well) of pRL-TK Renilla Luciferase plasmid, using Xtremegene (Roche). The cells were treated with the various compounds or Fulvestrant at the indicated doses a day after transfection for 24 hours and luciferase activities were determined using the Dual-Luciferase® Reporter Assay System (Promega) according to manufacturer's instructions. Luciferase bioluminescence measurements were performed with the Veritas™ Microplate Luminometer (Promega). All experiments were conducted in triplicate and the Firefly luciferase activity was normalized with the Renilla luciferase activity of each sample.

[3] = molecular target: T2, CRISPR KI Y537S (Homo sapiens, UniProt P03372, Y537S); experiment: Luciferase assay, CRISPR KI Y537S clones; format: cell-based; parameters: concentration or dose not given beside the values; details: for CRISPR KI (% Inhibition) Y537S cl. 4: clone 4; for CRISPR KI (% Inhibition) Y537S cl. 24: clone 24
T2 construct: endogenous in cells; host or cells: CRISPR knock-in clones (cl. 4, cl. 24)
T2 sequence (P03372 1-595 Y537S): T1 sequence (P03372 1-595 D538G) with Y537S, G538D
Protocol: as §1, §2

[4] = test system: MCF7; experiment: Luciferase assay in MCF7; format: cell-based; parameters: concentration or dose not given beside the values
Protocol: as §1, §2

[5] = molecular target: T3, full length human estrogen receptor a (Homo sapiens, UniProt P03372); experiment: Competitive radiometric binding assay (RBA), tritiated estradiol tracer; details: relative to estradiol = 100; average SD of 2-3 determinations
T3 construct: purified, full-length human estrogen receptor a from Invitrogen; purchased Invitrogen
T3 sequence (P03372 1-595): T1 sequence (P03372 1-595 D538G) with G538D
Protocol: Tritiated estradiol was obtained from Perkin Elmer and purified, full-length human estrogen receptor a from Invitrogen.
Competitive radiometric binding assays (RBA) were performed on 96-well microtiter filter plates (Millipore), using full length human estrogen receptor a, with tritiated estradiol as tracer, as previously described (Carlson K E, Choi I, Gee A, Katzenellenbogen B S, Katzenellenbogen J A. Altered ligand binding properties and enhanced stability of a constitutively active estrogen receptor: evidence that an open pocket conformation is required for ligand interaction. Biochemistry 1997, 36(48), 14897-14905). After incubation on ice for 18-24 h, ERα-bound tracer was absorbed onto hydroxyapatite (BioRad), washed with buffer, and measured by scintillation counting. RBA values are the average SD of 2-3 determinations.

SMILES | IC50 [1] [nM] | CRISPR KI (% Inhibition) D538G cl. 50 [2] [%] | CRISPR KI (% Inhibition) D538G cl. 65 [2] [%] | CRISPR KI (% Inhibition) Y537S cl. 4 [3] [%] | CRISPR KI (% Inhibition) Y537S cl. 24 [3] [%] | MCF7 (% Inhibition) [4] [%] | RBA (estradiol = 100) [5]
CC(C)(C)OC(=O)N[C@@H](Cc1c[nH]c2ccccc12)C(=O)NCCCCOc1ccc(C(=C2C3CC4CC(C3)CC2C4)c2ccc(O)cc2)cc1 [Example 1, (S)-tert-Butyl (1-((4-(4-(adamantan-2-ylidene(4-hydroxyphenyl)methyl)-phenoxy)butyl)amino)-3-(1H-indol-3-yl)-1-oxopropan-2-yl)carbamate] | 16 | 15 | 71 | −74 | −34 | 71 | 20 ± 6
O=C(NCCCCOc1ccc(C(=C2C3CC4CC(C3)CC2C4)c2ccc(O)cc2)cc1)C12CC3CC(CC(C3)C1)C2 [Example 6, N-(4-(4-(Adamantan-2-ylidene(4-hydroxyphenyl)methyl)phenoxy)-butyl)adamantane-1-carboxamide] | 13 | 68 | 73 | −187 | −108 | 70 | 11 ± 3
CC12CC3CC(C)(C1)CC(C(=O)NCCCCOc1ccc(C(=C4C5CC6CC(C5)CC4C6)c4ccc(O)cc4)cc1)(C3)C2 [Example 7, N-(4-(4-(Adamantan-2-ylidene(4-hydroxyphenyl)methyl)phenoxy)butyl)-3,5-dimethyladamantane-1-carboxamide] | 5 | 15 | 44 | −70 | −64 | 53 | 6.0 ± 0.1
O=C(NCCCCOc1ccc(C(=C2C3CC4CC(C3)CC2C4)c2ccc(O)cc2)cc1)C12CC3CC(CC1C3)C2 [Example 8, N-(4-(4-((Adamantan-2-ylidene)(4-hydroxyphenyl)methyl)phenoxy)butyl)-hexahydro-2,5-methanopentalene-3a(1H)-carboxamide] | 12 | 39 | 78 | −387 | −249 | 77 | 17 ± 2
O=C(NCCCCOc1ccc(C(=C2C3CC4CC(C3)CC2C4)c2ccc(O)cc2)cc1)[C@H]1C[C@@H]2C=C[C@H]1C2 [Example 9, (1R, 2S, 4R)—N-(4-(4-(Adamantan-2-ylidene(4-hydroxyphenyl)methyl)phenoxy)-butyl)bicyclo[2.2.1]hept-5-ene-2-carboxamide] | 9 | 34 | 72 | −369 | −384 | 73 | 37 ± 0.3
O=C(NCCCCOc1ccc(C(=C2C3CC4CC(C3)CC2C4)c2ccc(O)cc2)cc1)C1CCC1 [Example 10, N-(4-(4-(Adamantan-2-ylidene(4-hydroxyphenyl)methyl)phenoxy)butyl)-cyclobutanecarboxamide] | 3 | 19 | 65 | – | −496 | 66 | 70 ± 1
O=C(NCCCCOc1ccc(C(=C2C3CC4CC(C3)CC2C4)c2ccc(O)cc2)cc1)C1CCCCC1 [Example 11, N-(4-(4-(Adamantan-2-ylidene(4-hydroxyphenyl)methyl)phenoxy)butyl)-cyclohexanecarboxamide] | 0.6 | 74 | 84 | −62 | −10 | 84 | 28 ± 6
O=C(NCCCCOc1ccc(C(=C2C3CC4CC(C3)CC2C4)c2ccc(O)cc2)cc1)C1CCCCCC1 [Example 12, N-(4-(4-(Adamantan-2-ylidene(4-hydroxyphenyl)methyl)phenoxy)butyl)-cycloheptanecarboxamide] | 5 | 36 | 80 | −232 | −199 | 82 | 30 ± 5
O=C(NCCCCOc1ccc(C(=C2C3CC4CC(C3)CC2C4)c2ccc(O)cc2)cc1)C1CCC(F)(F)CC1 [Example 13, N-(4-(4-(Adamantan-2-ylidene(4-hydroxyphenyl)methyl)phenoxy)butyl)-4,4-difluorocyclohexanecarboxamide] | 4 | 32 | 77 | −334 | −327 | 80 | 30 ± 0.1
O=C(NCCCCOc1ccc(C(=C2C3CC4CC(C3)CC2C4)c2ccc(O)cc2)cc1)[C@H]1CC[C@H](C(F)(F)F)CC1 [Example 14, (trans)-N-(4-(4-(Adamantan-2-ylidene(4-hydroxyphenyl)methyl)phenoxy)-butyl)-4-(trifluoromethyl)cyclohexanecarboxamide] | 0.5 | 67 | 73 | −342 | −421 | 72 | 10 ± 0.4
